Source: US7176261B2, “Angiotensin-(1-7) eluting polymer-coated medical device to reduce restenosis and improve endothelial cell function” (Medtronic, Inc., priority 2004, dated 2007)
Marks after values point to notes of the source that are not given here.

How the values were obtained:
[1] = tested on: rats with uncoated stents implanted in the abdominal aorta; assay: Angiotensin-(1-7) pump study in rat aorta model (uncoated stents, micropump infusion); format: in vivo
Protocol: The effects of Ang-(1-7) on restenosis were studied in rats with uncoated stents implanted in the abdominal aorta with Ang-(1-7) infused by implantable micro pump. Twelve rats per group were implanted with stents and micropumps containing one of three infusion regimens for three weeks. Control rats received saline infusions and the Ang-(1-7) groups received infusion of Ang-(1-7) at 10 μg/kg/hr or 24 μg/kg/hr.
The rats receiving 24 μg/kg/hr, however, scored lower in neointimal level and percentage stenosis (Table 1 and FIG. 7). A 27% reduction in neointimal area was seen between the control rats and those receiving 24 μg/kg/hr Ang-(1-7). Ang-(1-7) has a clear beneficial effect on the restenosis rate.

[2] = tested on: smooth muscle cell proliferation; settings: intravenous infusion; cited from earlier work
ACE = molecular target: T1, ACE (Homo sapiens, UniProt P12821); settings: after six months of treatment, more than 2,000 patients; cited from earlier work
T1 construct: host or cells: patients (in vivo, endogenous enzyme)
T1 sequence (P12821 30-1306): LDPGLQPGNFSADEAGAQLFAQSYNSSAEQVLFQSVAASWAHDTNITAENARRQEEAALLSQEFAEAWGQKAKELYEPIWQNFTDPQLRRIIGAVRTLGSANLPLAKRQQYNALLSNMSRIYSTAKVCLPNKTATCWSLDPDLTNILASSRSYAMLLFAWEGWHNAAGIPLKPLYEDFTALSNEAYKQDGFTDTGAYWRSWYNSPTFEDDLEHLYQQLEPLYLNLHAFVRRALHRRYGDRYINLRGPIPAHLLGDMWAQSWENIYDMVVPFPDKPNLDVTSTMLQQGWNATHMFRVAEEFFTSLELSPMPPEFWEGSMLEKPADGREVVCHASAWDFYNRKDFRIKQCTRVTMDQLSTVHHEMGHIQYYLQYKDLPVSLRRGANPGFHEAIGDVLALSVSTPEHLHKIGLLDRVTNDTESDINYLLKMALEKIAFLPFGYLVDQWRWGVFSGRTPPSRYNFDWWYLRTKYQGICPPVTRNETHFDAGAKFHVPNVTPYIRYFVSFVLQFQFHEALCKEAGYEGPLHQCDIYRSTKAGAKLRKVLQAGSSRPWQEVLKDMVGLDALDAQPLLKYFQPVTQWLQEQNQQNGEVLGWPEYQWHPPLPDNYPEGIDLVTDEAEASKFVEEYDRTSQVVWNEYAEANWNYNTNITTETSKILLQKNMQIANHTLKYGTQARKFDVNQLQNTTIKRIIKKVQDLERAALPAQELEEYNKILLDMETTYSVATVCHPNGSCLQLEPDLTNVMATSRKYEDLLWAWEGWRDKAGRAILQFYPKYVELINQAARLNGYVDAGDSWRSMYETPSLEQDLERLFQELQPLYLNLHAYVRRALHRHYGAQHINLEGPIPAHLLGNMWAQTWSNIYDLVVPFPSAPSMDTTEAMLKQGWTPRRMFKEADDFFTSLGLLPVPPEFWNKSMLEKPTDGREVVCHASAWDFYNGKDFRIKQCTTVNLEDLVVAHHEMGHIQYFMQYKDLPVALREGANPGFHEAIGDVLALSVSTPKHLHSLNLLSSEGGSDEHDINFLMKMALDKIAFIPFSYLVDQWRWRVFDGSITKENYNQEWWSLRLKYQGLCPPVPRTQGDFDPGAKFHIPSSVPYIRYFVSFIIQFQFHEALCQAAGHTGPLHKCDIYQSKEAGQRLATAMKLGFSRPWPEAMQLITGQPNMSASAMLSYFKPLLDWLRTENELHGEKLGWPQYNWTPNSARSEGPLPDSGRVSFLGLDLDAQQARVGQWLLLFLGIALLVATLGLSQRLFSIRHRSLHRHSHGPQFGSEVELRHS

[3] = Ang-(1-7) infusion 24 μg/kg/hr for three weeks

Row | Molecule | difference compared to the control group in any of the parameters measured ([1]; 10 μg/kg/hr infusion) | reduction in neointimal area vs control rats ([1]; 24 μg/kg/hr infusion) [%] | endothelial function as measured in the thoracic aorta position, proximal from the stent ([1]; Ang-(1-7) infusion) | Media Area [1, 3] [mm^2] | Neointimal Thickness [1, 3] [µm] | Percentage Stenosis ([1]; Ang-(1-7) infusion 24 μg/kg/hr for three weeks, p = 0.016 vs. control) [%] | Neointimal area ([1]; Ang-(1-7) infusion 24 μg/kg/hr for three weeks, p = 0.035 vs. control) | smooth muscle cell proliferation associated with balloon-catheter injury [2] | incidence of restenosis vs placebo (ACE)
1 | Asp Arg Val Tyr lie His Pro (DRVYIHP; listed as Homo sapiens) [Ang-(1-7)] | did not show any significant difference | 27 | improved endothelial function | 0.40 ± 0.05 | 111 ± 8 | 10.4 ± 1.0 | 0.51 ± 0.05* mm^2 | inhibited | –
2 | CCOC(=O)[C@H](CCc1ccccc1)N[C@H]1CCCN2CCC[C@@H](C(=O)O)N2C1=O [cilazapril] | – | – | – | – | – | – | – | – | no significant differences
